# In patent US5212173A, “Alkylaminoalkylamine and ether compounds, processes and intermediates for their preparation, and medicaments containing them” (Kali-Chemie Pharma GmbH, priority 1990, dated 1993):
# Columns and labels:
# [1] = in vivo, po, 1440 min
# Experimental: Male mice weighing 20-25 g were orally administered maximum doses of 300 mg/kg of the test substance. The animals were carefully observed for toxic symptoms for three hours. All symptoms and deaths over a period of 24 hours after administration were also recorded. Accompanying symptoms were likewise observed and recorded. If death or strongly toxic symptoms was observed, increasingly smaller doses were administered to further mice until toxic symptoms no longer occurred. The lowest dose which caused death or strongly toxic symptoms is given as the minimum toxic dose in the following Table B.
# colon = experiment: Activity on spontaneous motility of the colon in anesthetized rats; type: in vivo, rat; settings: 100 μmol/kg i.p.
# Experimental: The effects of the test substances on the amplitudes and frequencies of gastric and intestinal contractions were measured by the following experimental method. Determination of the activity of the test substances on the spontaneous motility of the colon in anesthetized rats.
# Fasting rats of the SIV 50 strain having a body weight of 180-250 g were anesthetized with a ketamine/xylazine mixture. The animals were tracheotomised and laparotomised. After applying a pylorus ligature, a stomach tube was inserted into the stomach and connected at the other end to a calibrated pressure transducer (Statham element P 23 ID) via a three-way tap. A corresponding tube was inserted rectally 8 to 9 cm into the colon and likewise connected, in the same manner, to a corresponding calibrated pressure transducer. The stomach of the animals was then filled with 2 to 3 ml of water via the tube. The pressure variations in the colon were recorded before and after administration of the test substances using a Watanabe multicorder (MC 641). The differences between the average amplitudes before and after the treatment were determined, and the percent change in the average amplitudes caused by the test substances relative to the values obtained before the treatment is reported in the following Table B.
# [2] = tested on: isolated guinea pig ileum; experiment: Spasmolytic action in vitro against potassium chloride-induced contraction on the isolated guinea pig ileum; type: cell-based; settings: Cavia porcellus, 50 mmol/l KCl, Tyrode solution, 37° C., read-out: EC50 (approximately 50% reduction in the maximum potassium chloride-induced contraction)
# Text: In a physiological saline solution, isolated organ strips from the gastrointestinal tract such as gastric fundus, gastric antrum, duodenum, ileum, proximal colon and distal colon react to the addition of a spasmogen, for example potassium chloride solution, by contracting. This contraction of the organ strips, induced by the addition of spasmogen, is decreased by addition of the compounds of the invention. The extent of the regression of the contraction is an index of the spasmolytic activity of the compounds. Determination of spasmolytic activity against potassium chloride-induced spasms in isolated guinea pig ileum.
# Female guinea pigs of the Wiga strain having a body weight of about 300 g were sacrificed. Organ strips from the ileum about 1 cm long were placed in an organ bath of Tyrode solution at 37° C. and mounted in a conventional apparatus for the isotonic measurement of changes in length. Tyrode solution is an aqueous solution containing 136.9 mmol of NaCl, 2.68 mmol of KCl, 2.31 mmol of CaCl2, 1.0 mmol of MgCl2, 11.9 mmol of NaHCO3, 1.45 mmol of NaH2 PO4 and 5.55 mmol of glucose per liter. After an equilibration phase of one hour, 50 mmol/l of potassium chloride were added to the bath fluid to test the sensitivity of the ileum strips. The strips were then rinsed again with Tyrode solution. 50 mmol/l of potassium chloride were then added to the bath fluid again to induce a contraction of the ileum strip due to spasm. As soon as the contraction of the ileum strip due to spasm has reached a constant maximum value, the test substance was added to the bath fluid, and the decrease in the contraction was recorded and calculated as a % of the constant maximum contraction.
# The following table A gives the obtained by the test method described above. The example numbers given in the table for the compounds of formula I correspond to the numbers of the subsequent Preparation Examples. In Table A, the EC50 represents the concentration of the test substance in moles/liter in the bath fluid with which an approximately 50% reduction is achieved in the strength of the maximum spasmodic contraction induced in the ileum strip by potassium chloride.
Compound,Minimum toxic dose in the mouse [1] [mg/kg],"Action on spontaneous motility in the colon, % amplitude reduction (colon) [%]",EC50 [2] [µM]
"CC(C)[C@@H]1CC[C@@H](C)C[C@H]1OCCN(C)CCN1CCOCC1 [Example 1, N-[2-((1R,3R,4S)-1-methyl-4-isopropylcyclohex-3-yloxy)ethyl]-N-[2-(morpholin-1-yl)ethyl]-N-methylamine]",> 300,55,12
"CC(C)COCCN(C)CCO[C@@H]1C[C@H](C)CC[C@H]1C(C)C [Example 2, N-[2-((1R,3R,4S)-1-methyl-4-isopropylcyclohex-3-yloxy)ethyl]-N-[2-(2,2-dimethylethoxy)ethyl]-N-methylamine]",> 300,55,2
"CN(CCSCC[C@@H]1CC[C@H]2C[C@@H]1C2(C)C)CCN1CCOCC1 [Example 7, N-(2-[2-((1S,2S,5S)-6,6-dimethylbicyclo[3.1.1]hept-2-yl)ethylthio]ethyl)-N-[2-(morpholin-1-yl)ethyl]-N-methylamine]",,,16
"CN(CCCCCOCC[C@@H]1CC[C@H]2C[C@@H]1C2(C)C)CCN1CCOCC1 [Example 10, N-(5-[2-((1S,2S,5S)-6,6-dimethylbicyclo[3.1.1]hept-2-yl)ethoxy]pentyl)-N-[2-(morpholin-1-yl)ethyl]-N-methylamine]",,,30
"CC(C)COCCNCCO[C@@H]1C[C@H](C)CC[C@H]1C(C)C [Example 16, N-[2-((1R,3R,4S)-1-methyl-4-isopropylcyclohex-3-yloxy)ethyl]-N-[2-(2,2-dimethylethoxy)ethyl]amine]",,,4.9
"COc1cc(CN(C)CCN(C)CCO[C@@H]2C[C@H](C)CC[C@H]2C(C)C)cc(OC)c1OC [Example 19, N-[2-((1R,3R,4S)-1-methyl-4-isopropylcyclohex-3-yloxy)ethyl]-N-(2-[N'-(3,4,5-trimethoxybenzyl)-N'-methylamino]ethyl)-N-methylamine]",,74,0.54
CC(C)N(CCOCC[C@@H]1CC[C@H]2C[C@@H]1C2(C)C)CCN1CCOCC1 [Example 20],> 300,69,7.9
COc1ccc(CCN(C)CCN(C)CCOCC[C@@H]2CC[C@H]3C[C@@H]2C3(C)C)cc1OC [Example 21],300,62,3.6
CCOCCN(C)CCOCC[C@@H]1CC[C@H]2C[C@@H]1C2(C)C [Example 22],100,85,8.7
COc1ccc(CN(CCN(C)CCO[C@@H]2C[C@H](C)CC[C@H]2C(C)C)C(C)C)cc1OC [Example 23],,,1.5
CC(C)[C@H]1CC[C@H](C)C[C@@H]1OCCN(C)CCN1CCOCC1 [Example 24],,,14
CC(C)[C@@H]1CC[C@@H](C)C[C@H]1OCCN(C)CCN1CCCC1 [Example 32],,,20
CC(C)[C@@H]1CC[C@@H](C)C[C@H]1OCCN(C)CCN1CCN(C)CC1 [Example 34],,,47
CC(C)[C@@H]1CC[C@@H](C)C[C@H]1OCCN(C)CCOCc1ccccc1 [Example 35],,,1.9
CC(C)[C@@H]1CC[C@@H](C)C[C@H]1OCCN(C)CCCCCCN1CCOCC1 [Example 36],,,43
CN(CCO[C@H]1C(C)(C)[C@@H]2CC[C@@]1(C)C2)CCN1CCOCC1 [Example 37],,,26
CN(CCO[C@@H]1C[C@@H]2CC[C@@]1(C)C2(C)C)CCN1CCOCC1 [Example 38],,,19
CC(C)[C@@H]1CC[C@@H](C)C[C@H]1OCCN(C)CCNCc1ccc(Cl)c(Cl)c1 [Example 44],,,2.4
CC(C)[C@@H]1CC[C@@H](C)C[C@H]1OCCN(C)CCN(C)CCc1ccccc1Cl [Example 46],,,4.8
CC(C)[C@@H]1CC[C@@H](C)C[C@H]1OCCN(C)CCN(Cc1ccccc1)Cc1ccccc1 [Example 48],,85,0.68
CC(C)[C@@H]1CC[C@@H](C)C[C@H]1OCCN(C)CCN(C)CCCCc1ccccc1 [Example 50],,,1.3
